Reference: ChEMBL document CHEMBL6083254, “Optimization of B-Ring-Functionalized Antimalarial Tambjamines and Prodiginines” (J Med Chem, 2024)
Activity calls are given as the source filed them. No cut-off for these calls is given here.

Legend:
HepG2 = test: Cytotoxicity against human HepG2 cells assessed as cell viability incubated for 72 hrs by MTT assay; assay type: toxicity, cell-based; conditions: hepg2
Plasmodium yoelii [1] = test: Antiplasmodial activity against asexual erythrocytic stage of Plasmodium yoelii infected in po dosed female CFI mouse model assessed as reduction in parasitemia administered once daily for 4 days and measured on day 5 by Giemsa staining based microscopic analysis; assay type: functional; conditions: 120 h, time 5 day
Plasmodium yoelii [2] = test: Antiplasmodial activity against asexual erythrocytic stage of Plasmodium yoelii infected in female CFI mouse model assessed as reduction in parasitemia at 1 mg/kg, po administered once daily for 4 days and measured on day 5 by Giemsa staining based microscopic analysis relative to control; assay type: functional; set-up: scale not given: the % may be the effect or the level left; conditions: time 5 day
Plasmodium yoelii [3] = test: Antiplasmodial activity against asexual erythrocytic stage of Plasmodium yoelii infected in female CFI mouse model assessed as reduction in parasitemia at 10 mg/kg, po administered once daily for 4 days and measured on day 5 by Giemsa staining based microscopic analysis relative to control; assay type: functional; set-up: scale not given: the % may be the effect or the level left; conditions: time 5 day
Plasmodium yoelii [4] = test: Antiplasmodial activity against asexual erythrocytic stage of Plasmodium yoelii infected in female CFI mouse model at 25 mg/kg, po administered once daily for 4 days and measured on day 5 by Giemsa staining based microscopic analysis; assay type: functional, organism-based; conditions: time 5.0 day
Plasmodium berghei [5] = test: Antimalarial activity against liver-stage Plasmodium berghei sporozoites ANKA expressing GFP infected in po dosed female Albino C57BL/6 mouse assessed as reduction in parasite load measured after 24 to 48 hrs by IVIS imaging analysis; assay type: functional, organism-based; conditions: dose 20-40 mg/kg, time 24-48 hrs
Plasmodium berghei [6] = test: Antimalarial activity against blood-stage Plasmodium berghei sporozoites ANKA expressing GFP infected in po dosed female Albino C57BL/6 mouse assessed as reduction in parasite load measured after 72 hrs by flow cytometry analysis; assay type: functional, organism-based; conditions: dose 20-40 mg/kg
Plasmodium berghei [7] = test: Antimalarial activity against liver-stage Plasmodium berghei sporozoites ANKA expressing GFP infected female Albino C57BL/6 mouse assessed as reduction in parasite growth at 40 mg/kg, po measured at 48 hrs by IVIS imaging analysis; assay type: functional; set-up: scale not given: the % may be the effect or the level left
Plasmodium berghei [8] = test: Antimalarial activity against liver-stage Plasmodium berghei sporozoites ANKA expressing GFP infected female Albino C57BL/6 mouse assessed as reduction in parasite growth at 40 mg/kg, po measured at 72 hrs by IVIS imaging analysis; assay type: functional; set-up: scale not given: the % may be the effect or the level left
[9] = Metabolic stability in human liver microsomes assessed as half life measured upto 60 mins LC-MS analysis
[10] = Metabolic stability in mouse liver microsomes assessed as half life measured upto 60 mins LC-MS analysis
[11] = Metabolic stability in human liver microsomes assessed as intrinsic clearance measured upto 60 mins LC-MS analysis
[12] = Metabolic stability in mouse liver microsomes assessed as intrinsic clearance measured upto 60 mins LC-MS analysis
[13] = Aqueous solubility of compound in PBS buffer at pH 7.4 incubated for 90 mins by UV-vis spectroscopic analysis; conditions: pH 7.4, 1.5 h
[14] = Cmax in ICR-CD1 mouse liver at 40 mg/kg, po; assay type: ADME, organism-based
[15] = Cmax in ICR-CD1 mouse plasma at 40 mg/kg, po; assay type: ADME, organism-based
[16] = Tmax in ICR-CD1 mouse liver at 40 mg/kg, po; assay type: ADME, organism-based
[17] = Tmax in ICR-CD1 mouse plasma at 40 mg/kg, po; assay type: ADME, organism-based
[18] = Half life in ICR-CD1 mouse liver at 40 mg/kg, po; assay type: ADME, organism-based
[19] = Half life in ICR-CD1 mouse plasma at 40 mg/kg, po; assay type: ADME, organism-based
[20] = AUClast in ICR-CD1 mouse liver at 40 mg/kg, po; assay type: ADME, organism-based
[21] = AUClast in ICR-CD1 mouse plasma at 40 mg/kg, po; assay type: ADME, organism-based
[22] = %AUCextra in ICR-CD1 mouse liver at 40 mg/kg, po; assay type: ADME, organism-based; conditions: in vivo
[23] = %AUCextra in ICR-CD1 mouse plasma at 40 mg/kg, po; assay type: ADME, organism-based; conditions: in vivo
[24] = AUC (0 to infinity) in ICR-CD1 mouse liver at 40 mg/kg, po; assay type: ADME, organism-based
[25] = AUC (0 to infinity) in ICR-CD1 mouse plasma at 40 mg/kg, po; assay type: ADME, organism-based; conditions: in vivo
[26] = Apparent oral clearance in ICR-CD1 mouse liver at 40 mg/kg, po; assay type: ADME, organism-based
[27] = Apparent oral clearance in ICR-CD1 mouse plasma at 40 mg/kg, po; assay type: ADME, organism-based; conditions: in vivo
[28] = MRTlast in ICR-CD1 mouse liver at 40 mg/kg, po; assay type: ADME, organism-based
[29] = MRTlast in ICR-CD1 mouse plasma at 40 mg/kg, po; assay type: ADME, organism-based
[30] = Mutagenicity in Salmonella typhimurium TA98 at 10 uM in presence of S9 fraction incubated for 5 days by AMES assay; assay type: toxicity, subcellular; conditions: salmonella enterica subsp. enterica serovar typhimurium, s9, 120 h, time 5 day
[31] = Mutagenicity in Salmonella typhimurium TA98 at 10 uM in absence of S9 fraction incubated for 5 days by AMES assay; assay type: toxicity; conditions: salmonella enterica subsp. enterica serovar typhimurium, s9, 120 h, time 5 day
[32] = Mutagenicity in Salmonella typhimurium TA100 at 10 uM in presence of S9 fraction incubated for 5 days by AMES assay; assay type: toxicity, subcellular; conditions: salmonella enterica subsp. enterica serovar typhimurium, s9, 120 h, time 5 day
[33] = Mutagenicity in Salmonella typhimurium TA100 at 10 uM in absence of S9 fraction incubated for 5 days by AMES assay; assay type: toxicity; conditions: salmonella enterica subsp. enterica serovar typhimurium, s9, 120 h, time 5 day
[34] = target: T1, Voltage-gated inwardly rectifying potassium channel KCNH2 (Homo sapiens, UniProt Q12809); test: Inhibition of hERG expressed in CHO-K1 cells at 0.313 uM relative to control; assay type: toxicity, cell-based; conditions: cho-k1, 0.313 µM
[35] = target: T1, Voltage-gated inwardly rectifying potassium channel KCNH2; test: Inhibition of hERG expressed in CHO-K1 cells at 0.625 uM relative to control; assay type: toxicity, cell-based; conditions: cho-k1, 0.625 µM
[36] = target: T1, Voltage-gated inwardly rectifying potassium channel KCNH2; test: Inhibition of hERG expressed in CHO-K1 cells at 1.25 uM relative to control; assay type: toxicity, cell-based; conditions: cho-k1, 1.25 µM
[37] = target: T1, Voltage-gated inwardly rectifying potassium channel KCNH2; test: Inhibition of hERG expressed in CHO-K1 cells at 2.5 uM relative to control; assay type: toxicity, cell-based; conditions: cho-k1, 2.5 µM
[38] = target: T1, Voltage-gated inwardly rectifying potassium channel KCNH2; test: Inhibition of hERG expressed in CHO-K1 cells at 5 uM relative to control; assay type: toxicity, cell-based; conditions: cho-k1, 5 µM
[39] = target: T1, Voltage-gated inwardly rectifying potassium channel KCNH2; test: Inhibition of hERG expressed in CHO-K1 cells at 10 uM relative to control; assay type: toxicity, cell-based; conditions: cho-k1, 10 µM
in vitro = conditions: human
Description: Selectivity index, ratio of IC50 for cytotoxicity against human HepG2 cells assessed as cell viability to IC50 for antiplasmodial activity against asexual erythrocytic stage of Plasmodium falciparum D6 assessed as inhibition of parasitic growth incubated

Plasmodium falciparum [40] = test: microbe, parasite or virus in culture; conditions: D6, 72 h
Plasmodium falciparum [41] = test: microbe, parasite or virus in culture; conditions: Dd2, 72 h
Plasmodium falciparum [42] = test: microbe, parasite or virus in culture; conditions: Tm90-C2B, 72 h

T1 sequence (Q12809 whole entry): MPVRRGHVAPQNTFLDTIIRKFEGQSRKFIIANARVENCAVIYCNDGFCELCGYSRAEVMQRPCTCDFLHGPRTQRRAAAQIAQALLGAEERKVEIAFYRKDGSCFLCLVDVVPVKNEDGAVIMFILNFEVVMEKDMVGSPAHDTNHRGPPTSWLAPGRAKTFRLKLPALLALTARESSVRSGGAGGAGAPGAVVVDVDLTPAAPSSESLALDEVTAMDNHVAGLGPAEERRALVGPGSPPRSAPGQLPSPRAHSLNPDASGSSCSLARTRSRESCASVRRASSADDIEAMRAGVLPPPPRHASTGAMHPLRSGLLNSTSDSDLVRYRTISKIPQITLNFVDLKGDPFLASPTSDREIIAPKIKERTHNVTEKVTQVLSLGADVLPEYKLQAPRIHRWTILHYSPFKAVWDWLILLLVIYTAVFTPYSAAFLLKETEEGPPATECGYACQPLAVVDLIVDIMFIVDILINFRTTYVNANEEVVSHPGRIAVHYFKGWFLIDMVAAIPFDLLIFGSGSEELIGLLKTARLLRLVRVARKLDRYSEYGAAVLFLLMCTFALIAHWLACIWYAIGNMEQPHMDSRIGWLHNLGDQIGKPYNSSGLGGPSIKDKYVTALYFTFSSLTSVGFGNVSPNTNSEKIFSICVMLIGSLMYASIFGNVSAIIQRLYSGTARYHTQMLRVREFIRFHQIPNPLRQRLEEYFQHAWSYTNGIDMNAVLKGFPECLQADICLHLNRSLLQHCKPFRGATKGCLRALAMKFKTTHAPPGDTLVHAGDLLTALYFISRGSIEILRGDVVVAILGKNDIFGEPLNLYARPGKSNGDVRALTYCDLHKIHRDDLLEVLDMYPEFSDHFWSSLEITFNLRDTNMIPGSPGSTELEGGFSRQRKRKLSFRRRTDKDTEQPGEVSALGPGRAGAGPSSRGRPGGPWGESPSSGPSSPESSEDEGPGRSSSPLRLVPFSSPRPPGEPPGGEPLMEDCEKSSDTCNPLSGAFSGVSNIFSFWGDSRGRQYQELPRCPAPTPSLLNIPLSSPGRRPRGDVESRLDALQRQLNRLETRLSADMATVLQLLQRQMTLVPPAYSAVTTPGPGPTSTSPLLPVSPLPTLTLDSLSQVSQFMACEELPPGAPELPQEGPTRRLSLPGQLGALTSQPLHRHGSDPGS

## CCCCCc1cc(/C=C2\N=C(c3ccc[nH]3)C=C2Oc2ccccc2)[nH]c1C.Cl
HepG2
  IC50: 6260 nM
Plasmodium yoelii [1]; Plasmodium yoelii, po, read-out: ED50
  ED50: 0.99 mg/kg/day
Plasmodium yoelii [1]
  ED50: 1.11 mg/kg/day
Plasmodium yoelii [2]
  Activity: 54.6%
Plasmodium yoelii [3]
  Activity: 100%
Plasmodium yoelii [4]
  Activity: Active
Plasmodium berghei [5]
  Activity: Dose-dependent-effect
Plasmodium berghei [6]
  Activity: Dose-dependent-effect
Plasmodium berghei [7]
  Activity: 43%
Plasmodium berghei [8]
  Activity: 74%
[9]
  half-life at 1 h: > 1 h
[10]
  half-life at 1 h: 0.915 h
[11]
  microsomal CLint at 1 h: 4.02 µL/min/mg
[12]
  microsomal CLint at 1 h: 25.2 µL/min/mg
[13]
  solubility: < 3.125 µM
[14]
  Cmax: 1130 ng/mL
[15]
  Cmax: 199 ng/mL
[16]
  Tmax: 24 h
[17]
  Tmax: 30 h
[18]
  half-life: 5.03 h
[19]
  half-life: 6.41 h
[20]
  AUC(0-t): 31900 ng·h/mL
[21]
  AUC(0-t): 5950 ng·h/mL
[22]
  %AUCextra: 0.267%
[23]
  %AUCextra: 0.426%
[24]
  AUC(0-inf): 32000 ng·h/mL
[25]
  AUC: 5974 ng·h/mL
[26]
  CL/F: 0.615 mL/min/kg
[27]
  CL/F: 3.32 mL/min/kg
[28]
  MRT last: 29.1 h
[29]
  MRT last: 28.3 h
[30]
  Activity: Non-toxic
[31]
  Activity: Non-toxic
[32]
  Activity: Non-toxic
[33]
  Activity: Non-toxic
[34]
  inhibition (INH): 0.24%
[35]
  inhibition (INH): 7.31%
[36]
  inhibition (INH): 9.85%
[37]
  inhibition (INH): 10.3%
[38]
  inhibition (INH): 10.3%
[39]
  inhibition (INH): 17.5%
In vitro
  selectivity ratio: 884
Plasmodium falciparum [40]
  IC50: 7.08 nM
Plasmodium falciparum [41]
  IC50: 3.87 nM
Plasmodium falciparum [42]
  IC50: 8.74 nM
